Reference: US10758534B2 (Vertex Pharmaceuticals Incorporated, priority 2014, dated 2020)
Like-named read-outs stand apart in the source and are kept apart here.

Biological target: T1, F508del (Homo sapiens, UniProt P13569, DEL508-508)
T1 construct: expressed in transfected cells
Assay: Protocol 2: FRET membrane potential optical assay (VIPR), identification of correction compounds
Assay type: cell-based
Procedure, shortened: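 Single-addition HTS format: F508del-expressing NIH3T3 cells pre-incubated 16 hrs at 37° C. ± compound, with 27° C. culture as positive control. Channel activation by forskolin 10 μM and genistein 20 μM upon switch to gluconate bath, pH 7.4; read-out is FRET-based depolarization signal.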

[1] = F508del CFTR modulator activity, compounds of Table 1, read-out: EC30
[2] = Table 3, compounds of Table 1 as modulators of CFTR activity, protocol not stated

T1 sequence (P13569 with tags, fused parts or gaps DEL508-508): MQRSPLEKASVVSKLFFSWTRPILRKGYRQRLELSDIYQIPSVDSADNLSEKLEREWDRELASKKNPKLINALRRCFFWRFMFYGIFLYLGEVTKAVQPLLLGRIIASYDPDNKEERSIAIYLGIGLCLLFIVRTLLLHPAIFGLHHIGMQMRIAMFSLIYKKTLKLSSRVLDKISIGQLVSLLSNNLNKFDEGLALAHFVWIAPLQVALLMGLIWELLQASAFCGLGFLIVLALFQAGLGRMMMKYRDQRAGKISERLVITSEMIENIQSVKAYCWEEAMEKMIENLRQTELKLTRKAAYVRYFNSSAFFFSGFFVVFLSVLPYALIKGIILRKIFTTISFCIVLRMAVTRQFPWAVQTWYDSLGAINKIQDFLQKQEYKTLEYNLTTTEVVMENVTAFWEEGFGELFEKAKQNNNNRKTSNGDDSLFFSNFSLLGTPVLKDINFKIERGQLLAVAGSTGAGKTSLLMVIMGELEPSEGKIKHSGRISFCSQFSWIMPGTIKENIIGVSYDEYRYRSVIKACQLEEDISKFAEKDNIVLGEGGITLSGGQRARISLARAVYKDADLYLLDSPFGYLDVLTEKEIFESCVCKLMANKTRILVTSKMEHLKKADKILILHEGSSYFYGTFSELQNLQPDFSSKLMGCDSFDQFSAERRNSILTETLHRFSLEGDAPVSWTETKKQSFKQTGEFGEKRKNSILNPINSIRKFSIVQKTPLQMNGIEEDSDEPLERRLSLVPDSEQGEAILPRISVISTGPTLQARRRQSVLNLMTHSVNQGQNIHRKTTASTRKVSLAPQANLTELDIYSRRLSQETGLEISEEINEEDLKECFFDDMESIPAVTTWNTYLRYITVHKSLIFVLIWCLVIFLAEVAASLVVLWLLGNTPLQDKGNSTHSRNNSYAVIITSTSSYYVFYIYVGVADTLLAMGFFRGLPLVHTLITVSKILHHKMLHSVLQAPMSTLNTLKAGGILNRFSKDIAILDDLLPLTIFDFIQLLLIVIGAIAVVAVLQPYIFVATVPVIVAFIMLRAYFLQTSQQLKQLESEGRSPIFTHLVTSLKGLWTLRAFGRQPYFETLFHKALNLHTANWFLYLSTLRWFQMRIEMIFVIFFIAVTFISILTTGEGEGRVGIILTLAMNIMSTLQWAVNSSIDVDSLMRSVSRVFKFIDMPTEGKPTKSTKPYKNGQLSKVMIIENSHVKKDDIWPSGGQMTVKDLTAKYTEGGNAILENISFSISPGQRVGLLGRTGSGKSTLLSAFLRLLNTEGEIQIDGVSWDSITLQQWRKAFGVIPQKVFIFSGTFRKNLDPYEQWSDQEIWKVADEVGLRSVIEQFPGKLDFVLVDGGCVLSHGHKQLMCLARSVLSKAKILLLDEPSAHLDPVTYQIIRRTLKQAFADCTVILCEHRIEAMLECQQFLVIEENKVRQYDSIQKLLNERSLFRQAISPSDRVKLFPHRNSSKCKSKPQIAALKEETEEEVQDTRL

Row | SMILES | EC30 [1] [nM] | EC30 [2]
1 | CC(C)(C)c1cc(C(=O)NS(=O)(=O)c2ccccc2)n(Cc2cccc3ccccc23)n1 [Compound 328, N-(benzenesulfonyl)-5-tert-butyl-2-(1-naphthylmethyl)pyrazole-3-carboxamide] | – | +++ (“+++” means <3 uM)
2 | CC(C)COc1cc(F)cc(-c2ccc(C(=O)NS(=O)(=O)c3ccn[nH]3)c(N3CCCC(C(C)C)C3)n2)c1 (centres unmarked) [Compound 498, 6-(3-fluoro-5-isobutoxy-phenyl)-2-(3-isopropyl-1-piperidyl)-N-(1H-pyrazol-5-ylsulfonyl)pyridine-3-carboxamide] | – | +++ (“+++” means <3 uM)
3 | CCCC1CCCN(c2nc(-c3ccc(OC(C)C)nc3)ccc2C(=O)NS(=O)(=O)c2cccc(N)n2)C1 (centres unmarked) [Compound 522, N-[(6-amino-2-pyridyl)sulfonyl]-6-(6-isopropoxy-3-pyridyl)-2-(3-propyl-1-piperidyl)pyridine-3-carboxamide] | – | +++ (“+++” means <3 uM)
4 | Cc1cc(C)c(Oc2ccc(C(C)(C)C)nc2C(=O)NS(=O)(=O)c2ccccc2)c(C)c1 [Compound 350, N-(benzenesulfonyl)-6-tert-butyl-3-(2,4,6-trimethylphenoxy)pyridine-2-carboxamide] | – | +++ (“+++” means <3 uM)
5 | Cc1cc(C)c(Oc2nc(NC(C)(C)C)ccc2C(=O)NS(=O)(=O)c2cccc(N)n2)c(C)c1 [Compound 273, N-[(6-Amino-2-pyridyl)sulfonyl]-6-(tert-butylamino)-2-(2,4,6-trimethylphenoxy)pyridine-3-carboxamide] | – | +++ (“+++” means <3 uM)
6 | COc1cccc2c1cc(C(=O)NS(=O)(=O)c1ccccc1)n2Cc1c(C)cccc1C [Compound 290, N-(benzenesulfonyl)-1-[(2,6-dimethylphenyl)methyl]-4-methoxy-indole-2-carboxamide] | – | +++ (“+++” means <3 uM)
7 | CC(C)Oc1ccc(-c2ccc(C(=O)NS(=O)(=O)c3cccc(N)n3)c(N3CC[C@@H](C)[C@H]3C)n2)cn1 [Compound 441, N-[(6-amino-2-pyridyl)sulfonyl]-2-[(2R,3R)-2,3-dimethylpyrrolidin-1-yl]-6-(6-isopropoxy-3-pyridyl)pyridine-3-carboxamide] | – | +++ (“+++” means <3 uM)
8 | CCN(CC)c1ccc(-c2cc(C(=O)NS(=O)(=O)c3ccccc3)n(Cc3c(C)cccc3C)n2)cc1 [Compound 162, N-(benzenesulfonyl)-5-[4-(diethylamino)phenyl]-2-[(2,6-dimethylphenyl)methyl]pyrazole-3-carboxamide] | – | +++ (“+++” means <3 uM)
9 | Cc1ccc(-c2ccc(C(=O)NS(=O)(=O)c3cc[nH]n3)c(Oc3c(C)cc(C)cc3C)n2)cc1 [Compound 300, 6-(p-tolyl)-N-(1H-pyrazol-3-ylsulfonyl)-2-(2,4,6-trimethylphenoxy)pyridine-3-carboxamide] | – | +++ (“+++” means <3 uM)
10 | CC(C)(C)c1ccc(-c2nc(C(C)(C)C)ccc2C(=O)NS(=O)(=O)c2cccc(N)c2)cc1 [Compound 252, N-(3-aminophenyl)sulfonyl-6-tert-butyl-2-(4-tert-butylphenyl)pyridine-3-carboxamide] | – | +++ (“+++” means <3 uM)
11 | CCOc1cc(F)cc(-c2ccc(C(=O)NS(=O)(=O)c3cc[nH]n3)c(Oc3c(C)cc(C)cc3C)n2)c1 [Compound 585, 6-(3-ethoxy-5-fluoro-phenyl)-N-(1H-pyrazol-3-ylsulfonyl)-2-(2,4,6-trimethylphenoxy)pyridine-3-carboxamide] | – | +++ (“+++” means <3 uM)
12 | CC(C)COc1cc(F)cc(-c2ccc(C(=O)NS(=O)(=O)c3cccc(N)n3)c(N3CC(C)C3)n2)c1 [Compound 2117, N-[(6-amino-2-pyridyl)sulfonyl]-6-(3-fluoro-5-isobutoxy-phenyl)-2-(3-methylazetidin-1-yl)pyridine-3-carboxamide] | < 3000 | –
13 | Cc1cc(C)c(Oc2nc(C3CC3)cc(C(F)(F)F)c2C(=O)NS(=O)(=O)c2cccc(N)n2)c(C)c1 [Compound 54, N-[(6-amino-2-pyridyl)sulfonyl]-6-cyclopropyl-4-(trifluoromethyl)-2-(2,4,6-trimethylphenoxy)pyridine-3-carboxamide] | – | ++ (“++” means between 3 uM and 10 uM)
14 | CC(C)COc1cc(F)cc(-c2ccc(C(=O)NS(=O)(=O)N3C[C@@H](O)[C@H](O)C3)c(N3C[C@@H](C)CC3(C)C)n2)c1 [Compound 2534, N-[(3R,4R)-3,4-dihydroxypyrrolidin-1-yl]sulfonyl-6-(3-fluoro-5-isobutoxy-phenyl)-2-[(4S)-2,2,4-trimethylpyrrolidin-1-yl]pyridine-3-carboxamide] | < 3000 | –

The remaining lines, values ahead:

Row | EC30 [1] [nM] | EC30 [2] | SMILES
15 | < 3000 | – | C[C@@H]1CN(c2nc(-c3ccc4ccccc4c3)ccc2C(=O)NS(=O)(=O)c2cccnc2N)C(C)(C)C1 [Compound 2280, N-[(2-amino-3-pyridyl)sulfonyl]-6-(2-naphthyl)-2-[(4S)-2,2,4-trimethylpyrrolidin-1-yl]pyridine-3-carboxamide]
16 | < 3000 | – | CC(C)c1ccc(-c2ccc(C(=O)NS(=O)(=O)c3cccnc3N)c(N3C[C@@H](C)CC3(C)C)n2)cc1 [Compound 2368, N-[(2-amino-3-pyridyl)sulfonyl]-6-(4-isopropylphenyl)-2-[(4S)-2,2,4-trimethylpyrrolidin-1-yl]pyridine-3-carboxamide]
17 | < 3000 | – | CC1CN(c2ncccc2C(=O)NS(=O)(=O)c2cccc(Nc3cnc4ccccc4c3)n2)C(C)(C)C1 (centres unmarked) [Compound 2449, N—[[6-(3-quinolylamino)-2-pyridyl]sulfonyl]-2-(2,2,4-trimethylpyrrolidin-1-yl)pyridine-3-carboxamide]
18 | – | +++ (“+++” means <3 uM) | CC1CCN(c2nc(-c3cc(F)cc(OC(C)C)c3)ccc2C(=O)NS(=O)(=O)c2nccnc2N)CC1 [Compound 699, N-(3-aminopyrazin-2-yl)sulfonyl-6-(3-fluoro-5-isopropoxy-phenyl)-2-(4-methyl-1-piperidyl)pyridine-3-carboxamide]
19 | – | +++ (“+++” means <3 uM) | CCC1CCN(c2nc(-c3ccc(OC(C)C)nc3)ccc2C(=O)NS(=O)(=O)c2cccc(N)n2)CC1 [Compound 619, N-[(6-amino-2-pyridyl)sulfonyl]-2-(4-ethyl-1-piperidyl)-6-(6-isopropoxy-3-pyridyl)pyridine-3-carboxamide]
20 | – | ++ (“++” means between 3 uM and 10 uM) | Cc1cc(C)c(Oc2nc(C)ccc2C(=O)NS(=O)(=O)c2cccc(NCCN)n2)c(C)c1 [Compound 792, N-[[6-(2-aminoethylamino)-2-pyridyl]sulfonyl]-6-methyl-2-(2,4,6-trimethylphenoxy)pyridine-3-carboxamide]
21 | 3000 to 10000 | – | COc1ncc(-c2ccc(C(=O)NS(=O)(=O)c3cccnc3N)c(N3C[C@@H](C)CC3(C)C)n2)c(OC)n1 [Compound 2008, N-[(2-amino-3-pyridyl)sulfonyl]-6-(2,4-dimethoxypyrimidin-5-yl)-2-[(4S)-2,2,4-trimethylpyrrolidin-1-yl]pyridine-3-carboxamide]
22 | < 3000 | – | CC1CN(c2ncc(C3=CCN(C(=O)OC(C)(C)C)CC3)cc2C(=O)NS(=O)(=O)c2cccc(N)n2)C(C)(C)C1 (centres unmarked) [Compound 2129, tert-butyl 4-[5-[(6-amino-2-pyridyl)sulfonylcarbamoyl]-6-(2,2,4-trimethylpyrrolidin-1-yl)-3-pyridyl]-3,6-dihydro-2H-pyridine-1-carboxylate]
23 | < 3000 | – | Cc1cc(-c2ccc(C(=O)NS(=O)(=O)c3cccc(N)n3)c(N3C[C@@H](C)CC3(C)C)n2)cnc1N(C)C(C)C [Compound 2684]
24 | 3000 to 10000 | – | Cc1cccc(Oc2cccc(S(=O)(=O)NC(=O)c3cccnc3N3CC(C)CC3(C)C)n2)n1 (centres unmarked) [Compound 2731]
25 | < 3000 | – | C[C@@H]1CN(c2nc(-c3cccc(F)c3O)ccc2C(=O)NS(=O)(=O)c2cccc(N)n2)C(C)(C)C1 [Compound 2386, N-[(6-amino-2-pyridyl)sulfonyl]-6-(3-fluoro-2-hydroxy-phenyl)-2-[(4S)-2,2,4-trimethylpyrrolidin-1-yl]pyridine-3-carboxamide]
26 | < 3000 | – | COc1cc(-c2ccc(C(=O)NS(=O)(=O)c3ccc[nH]c3=O)c(N3C[C@@H](C)CC3(C)C)n2)ccc1C [Compound 2440, 6-(3-methoxy-4-methyl-phenyl)-N-[(2-oxo-1H-pyridin-3-yl)sulfonyl]-2-[(4S)-2,2,4-trimethylpyrrolidin-1-yl]pyridine-3-carboxamide]
27 | 3000 to 10000 | – | C[C@@H]1CN(c2nc(-c3ccc4c(c3)OCCO4)ccc2C(=O)NS(=O)(=O)c2ccc[nH]c2=O)C(C)(C)C1 [Compound 2516, 6-(2,3-dihydro-1,4-benzodioxin-6-yl)-N-[(2-oxo-1H-pyridin-3-yl)sulfonyl]-2-[(4S)-2,2,4-trimethylpyrrolidin-1-yl]pyridine-3-carboxamide]
28 | < 3000 | – | CC1CN(c2ncc(C3=CCC(C(F)(F)F)CC3)cc2C(=O)NS(=O)(=O)c2cccc(N)n2)C(C)(C)C1 (centres unmarked) [Compound 2510, N-[(6-amino-2-pyridyl)sulfonyl]-5-[4-(trifluoromethyl)cyclohexen-1-yl]-2-(2,2,4-trimethylpyrrolidin-1-yl)pyridine-3-carboxamide]
29 | < 3000 | – | Cc1ccc(-c2ccc(C(=O)NS(=O)(=O)c3cccc(N)n3)c(N3C[C@@H](C)CC3(C)C)n2)c(O)c1 [Compound 2043, N-[(6-amino-2-pyridyl)sulfonyl]-6-(2-hydroxy-4-methyl-phenyl)-2-[(4S)-2,2,4-trimethylpyrrolidin-1-yl]pyridine-3-carboxamide]
30 | < 3000 | – | CC1CN(c2ncccc2C(=O)NS(=O)(=O)c2cccc(OCc3c(F)cccc3Cl)n2)C(C)(C)C1 (centres unmarked) [Compound 2717]
31 | < 3000 | – | CCN(CC)c1cccc(S(=O)(=O)NC(=O)c2cccnc2N2CC(C)CC2(C)C)n1 (centres unmarked) [Compound 2726]
32 | < 3000 | – | Cc1ccccc1-c1ccc(C(=O)NS(=O)(=O)c2ccc[nH]c2=O)c(N2C[C@@H](C)CC2(C)C)n1 [Compound 2176, 6-(o-tolyl)-N-[(2-oxo-1H-pyridin-3-yl)sulfonyl]-2-[(4S)-2,2,4-trimethylpyrrolidin-1-yl]pyridine-3-carboxamide]
